Among the targets are mTORC1 (Homo sapiens, UniProt P42345); mTORC3 (Homo sapiens, UniProt P42345); mTORC2 (Homo sapiens, UniProt P42345).
Test in all cases: IP kinase assay, GST-P70S6K peptide, anti-p-P70S6K Thr389 immunoblot
What all share (assay type): biochemical
What all share (conditions): […] inhibitor, […] ATP, […] MgCl2, pH […] C; ATP-competitive
On the technique in general: Immunoblotting shows a protein as a band on a membrane.

In the case of `COc1ccc(-c2ccc3c(N4CCOC[C@@H]4C)nc(N4CCOC[C@@H]4C)nc3n2)cc1CO` [AZD-8055], the results for the “IP kinase assay, GST-P70S6K peptide, anti-p-P70S6K Thr389 immunoblot” value on mTORC1, at mTORC3 and at mTORC2 were “inhibited the kinase activity of all mTORCs”, “preincubation with OSI-27 or AZD-8055 at an mTOR-specific concentration inhibited the kinase activity” and “inhibited the kinase activity of all mTORCs”, respectively.

With `COc1cccc2cc(-c3nc([C@H]4CC[C@H](C(=O)O)CC4)n4ncnc(N)c34)[nH]c12` [OSI-27], the “IP kinase assay, GST-P70S6K peptide, anti-p-P70S6K Thr389 immunoblot” value is listed as “inhibited the kinase activity of all mTORCs” at mTORC1, “preincubation with OSI-27 or AZD-8055 at an mTOR-specific concentration inhibited the kinase activity” on mTORC3 and “inhibited the kinase activity of all mTORCs” on mTORC2.
